Literature values in article PMC12308805, “Ultrahigh-Throughput Virtual Screening Strategies against PPI Targets: A Case Study of STAT Inhibitors” (Journal of Chemical Information and Modeling, 2025).
Where two headings read alike, the source gives them in different places. Square brackets hold non-standard residues; d marks the D form. Peptide text beside a SMILES is read from it. * marks the point of attachment. d(pY) = N[C@H](Cc1ccc(OP(=O)(O)O)cc1)C(=O)O; pY = N[C@@H](Cc1ccc(OP(=O)(O)O)cc1)C(=O)O; NH(1S-phenylethyl) = C[C@H](N*)c1ccccc1; X4 = O=C(/C=C/c1ccc(OP(=O)(O)O)cc1)*

System: STAT3
Details: cited from earlier work; for Type: retrospective screening set for STAT3 SH2 domain (PDB 6QHD), ref DUD-E
[1] = sheet 6QHD_actives_decoys, decoys are presumed inactives, not tested
[2] = sheet 6QHD_actives_decoys, decoys generated with DUD-E and presumed inactive, not tested
[3] = sheet 6QHD_actives_decoys, known STAT3 actives of the retrospective screening set, ref ChEMBL / literature

Row | SMILES | Type [1] | Type [2] | also measured
1 | COc1c([C@@H]2OC[C@@H](OC(C)=O)[C@@H](OC(C)=O)[C@H]2OC(C)=O)c(O)cc2oc(-c3ccc(O[C@H]4O[C@@H](CO)[C@@H](O)[C@@H](O)[C@H]4O)cc3)cc(=O)c12 [Decoy773] | Inactive (Decoy) |  | 
2 | Nc1nc(OCc2cc(Br)cs2)c2ncn(CCCCCCCCO[C@@H]3O[C@@H](CO)[C@@H](O)[C@@H](O)[C@@H]3O)c2n1 [Decoy329] |  | Inactive (Decoy) | 
3 | O=C(CS[C@@H]1NN[C@H](NCc2ccco2)S1)N[C@H](Cc1c[nH]c2ccccc12)C(=O)O [Decoy825] | Inactive (Decoy) |  | 
4 | COC(=O)[C@H]1O[C@H](OCC(=O)[C@@]2(O)CC[C@H]3[C@H]4CCC5=CC(=O)C=C[C@@]5(C)[C@@H]4[C@@H](O)C[C@@]32C)[C@@H](OC(C)=O)[C@H](OC(C)=O)[C@H]1OC(C)=O [Decoy634] |  | Inactive (Decoy) | 
5 | O=C(CCCN1CCC(O[C@@H]2O[C@H](C(=O)O)[C@@H](O)[C@H](O)[C@H]2O)(c2ccc(Cl)cc2)CC1)c1ccc(F)cc1 [Decoy692] |  |  | Type (sheet 6QHD_actives_decoys, […]): Inactive (Decoy)
6 | NC(=O)CSc1nnc(NC(=O)CSc2nnc(N/N=C/c3cccc4ccccc34)n2N)s1 [Decoy376] |  | Inactive (Decoy) | 
7 | CC(C)C[C@H](NC(=O)/C=C/c1ccc(OP(=O)(O)O)cc1)C(=O)N1CCC[C@H]1C(=O)N[C@@H](CCC(N)=O)C(=O)N[C@H](C(N)=O)[C@@H](C)O [CHEMBL470227] (X4-LPQT-NH2) |  |  | Type (known STAT3 active) [3]: Active
8 | CCN(CC)CCCNC(=S)N(CCN1CCOCC1)Cc1cc2cc3c(cc2[nH]c1=O)OCCO3 [Decoy416] |  | Inactive (Decoy) | 
9 | C[C@H](CCC(=O)NCCS(=O)(=O)O)[C@H]1CC[C@H]2[C@H]3[C@H](O)C[C@@H]4C[C@H](OS(=O)(=O)O)CC[C@]4(C)[C@H]3C[C@H](O)[C@]12C [Decoy830] | Inactive (Decoy) |  | 
10 | CCCOc1ccc([C@H]2C(C(=O)c3c(C)nc4ccccn34)=C(O)C(=O)N2CCN(CC)CC)cc1OCC [Decoy760] | Inactive (Decoy) |  | 
11 | O=c1c(C[C@@H](O)CN2CCOCC2)c(O)n(C[C@H](O)CN2CCOCC2)c(=O)n1C[C@H](O)CN1CCOCC1 [Decoy567] |  |  | Type (sheet 6QHD_actives_decoys, […]): Inactive (Decoy)
12 | C=CCn1c(CNc2ccc(Cl)cc2)nnc1S[C@@H](C)C(=O)N/N=C/c1ccc([N+](=O)[O-])s1 [Decoy574] |  | Inactive (Decoy) | 
13 | COc1ccc(C(=O)NCCc2nnc3ccc(SCC(=O)Nc4ccc(OC(F)(F)F)cc4)nn23)cc1 [Decoy531] |  | Inactive (Decoy) | 
14 | COc1cc(/C=N/NC(=O)CC(=O)N/N=C/c2cc(Br)c(O)c(OC)c2)cc(Br)c1O [Decoy510] |  | Inactive (Decoy) | 
15 | COC(=O)[C@@H]1O[C@H](OC/C(=N/NC(N)=O)[C@@]2(O)CC[C@@H]3[C@@H]4CC[C@@H]5C[C@H](OC(C)=O)CC[C@]5(C)[C@H]4C(=O)C[C@]32C)[C@@H](OC(C)=O)[C@H](OC(C)=O)[C@H]1OC(C)=O [Decoy339] |  | Inactive (Decoy) | 
16 | CO[C@@H]1O[C@@H]2CO[C@@H](c3ccccc3)O[C@H]2[C@H](O[C@@H]2O[C@H](COC(C)=O)[C@H](OC(C)=O)[C@H](OC(C)=O)[C@H]2OC(C)=O)[C@H]1NC(C)=O [Decoy547] |  | Inactive (Decoy) | 
17 | COc1cc(NC(=S)Nc2ccc(S(=O)(=O)/N=c3/cc(OC)nc(OC)[nH]3)cc2)cc(OC)c1 [Decoy884] | Inactive (Decoy) |  | 
18 | Cc1ccc(NC(=O)CCC(=O)NNC(=O)CCCCC(=O)NNC(=O)CCC(=O)Nc2ccc(C)c(C)c2)cc1C [Decoy444] |  |  | Type (sheet 6QHD_actives_decoys, […]): Inactive (Decoy)
19 | CC(C)C[C@H](NC(=O)/C=C/c1ccc(OP(=O)(O)O)cc1)C(=O)N1C[C@H]2C[C@H]2[C@H]1C(=O)N[C@@H](CCC(N)=O)[C@@H](C)OCc1ccccc1 [CHEMBL573443] |  |  | Type (known STAT3 active) [3]: Active
20 | CC(=O)N[C@H](Cc1ccc(OP(=O)(O)O)cc1)C(=O)N[C@H](CC(C)C)C(=O)N1CCC[C@H]1C(=O)N[C@@H](CCC(N)=O)C(=O)N[C@@H](C)C(=O)N[C@H](C(N)=O)C(C)C [CHEMBL156407] (Ac-[d(pY)][dL]PQAV-NH2) |  |  | Type (known STAT3 active): Active
21 | CC(C)(C)NS(=O)(=O)c1ccc(NC(=O)CSc2nnc(N/N=C/c3cccc(O)c3)n2N)cc1 [Decoy849] | Inactive (Decoy) |  | 
22 | CCOc1ccc(NC(=O)CCC(=O)NNC(=S)NC(=O)c2cc([N+](=O)[O-])cc([N+](=O)[O-])c2)cc1 [Decoy733] | Inactive (Decoy) |  | 
23 | COc1ccc(C[C@@H]2COC(=O)[C@@H]2Cc2ccc(O[C@@H]3O[C@H](CO)[C@@H](O)[C@H](O)[C@H]3O)c(OC)c2)cc1OC [Decoy606] |  | Inactive (Decoy) | 
24 | CSCC[C@H](NC(=O)[C@H](C)NC(=O)[C@H](CCC(N)=O)NC(=O)[C@@H]1CCCN1C(=O)[C@@H](CCCN=C(N)N)NC(=O)[C@@H](Cc1ccc(OP(=O)(O)O)cc1)NC(C)=O)C(N)=O [CHEMBL345419] (Ac-[d(pY)][dR]PQAM-NH2) |  |  | Type (known STAT3 active) [3]: Active
25 | CCCn1c(N)c(N(CCOC)C(=O)Cc2coc3cc(C)c(C(C)C)cc23)c(=O)[nH]c1=O [Decoy953] | Inactive (Decoy) |  | 
26 | NC(=O)CC[C@H](NC(=O)[C@@H]1Cc2cccc3c2N1C(=O)[C@@H](NC(=O)c1cc2cc(OP(=O)(O)O)ccc2[nH]1)CC3)C(=O)NCc1ccccc1 [CHEMBL452194] |  |  | Type (known STAT3 active) [3]: Active

Row | SMILES | Type [1] | Type [2] | also measured
27 | O=c1c(C[C@@H](O)CN2CCOCC2)c(O)n(C[C@@H](O)CN2CCOCC2)c(=O)n1C[C@H](O)CN1CCOCC1 [Decoy568] |  |  | Type (sheet 6QHD_actives_decoys, […]): Inactive (Decoy)
28 | CCN(CC)c1ccc(NC(=O)CSc2n[nH]c(N/N=C/c3cc(OC)c(O)cc3[N+](=O)[O-])n2)cc1 [Decoy906] | Inactive (Decoy) |  | 
29 | CCCCCCCCCCC/C=C/C(=O)N[C@@H]1[C@@H](O[C@H]2O[C@@H](CO)[C@@H](O)[C@@H](O)[C@H]2NC(C)=O)O[C@@H](C[C@H](O)[C@H]2O[C@@H](n3ccc(=O)[nH]c3=O)[C@@H](O)[C@H]2O)[C@@H](O)[C@H]1O [Decoy558] |  | Inactive (Decoy) | 
30 | CCC/C=C/[C@@H](C(=O)NCS(=O)(=O)c1ccc(C)cc1)N(Cc1ccco1)C(=O)c1c(O)cccc1O [Decoy942] | Inactive (Decoy) |  | 
31 | CCOc1ccc(-n2c(SCC(=O)N/N=C/c3ccc(OC)c(OC)c3OC)nnc2-c2ccccc2)cc1 [Decoy778] | Inactive (Decoy) |  | 
32 | COCCNC(=O)[C@@H](c1ccc(F)cc1)N(C(=O)c1snc(C(N)=O)c1N)c1ccc2c(c1)OCO2 [Decoy808] | Inactive (Decoy) |  | 
33 | CCOc1ccc(S(=O)(=O)NC[C@@H](c2cccnc2)S(=O)(=O)c2ccc(OCC)cc2)cc1 [Decoy534] |  | Inactive (Decoy) | 
34 | COc1cc(/C=N/Nc2nc(SCC(=O)Nc3ccc(C)cc3C)n[nH]2)cc(OC)c1OC [Decoy584] |  | Inactive (Decoy) | 
35 | C=CCn1c(SCC(=O)Nc2sc(C(=O)OCC)c(C)c2C(=O)OCC)nc2sc3c(c2c1=O)CCCC3 [Decoy554] |  | Inactive (Decoy) | 
36 | CC(=O)O[C@@H]1[C@@H](O)[C@H](CO)O[C@H](O[C@@H](/C=N/c2cnc([N+](=O)[O-])s2)[C@@H](CO)O[C@H](O)/C=N/c2cnc([N+](=O)[O-])s2)[C@@H]1O [Decoy908] | Inactive (Decoy) |  | 
37 | CC(=O)N[C@@H](Cc1ccc(OP(=O)(O)O)cc1)C(=O)N[C@@H](CC(C)C)C(=O)N1CCC[C@H]1C(=O)N[C@@H](CCC(N)=O)C(=O)N[C@@H](C)c1ccccc1 [CHEMBL370208] (Ac-[pY]LPQ-{NH(1S-phenylethyl)}) |  |  | Type (known STAT3 active) [3]: Active
38 | COc1ccccc1NCc1nnc(SCC(=O)Nc2ccc3c(c2)C(O)=NC3=O)n1-c1ccccc1 [Decoy768] | Inactive (Decoy) |  | 
39 | C=C(CCO)C(=O)OC[C@H]1OC[C@H](OC(=O)C(=C)CCO[C@@H]2O[C@H](COC(=O)C(=C)CCO)[C@@H](O)[C@H](O)[C@H]2O)[C@@H](O)[C@H]1O [Decoy493] |  | Inactive (Decoy) | 
40 | C=CCO[C@@H]1[C@H]2OC(C)(C)O[C@H]2O[C@@H]1[C@H](O)Cn1c(=O)n(C[C@@H](O)[C@H]2O[C@@H]3OC(C)(C)O[C@@H]3[C@H]2OCC=C)c2cc(C)ccc21 [Decoy929] | Inactive (Decoy) |  | 
41 | CCNc1nc(NCC)n2c(SCC(=O)NC3=C(C(=O)OCC)[C@H]4CCC[C@@H]4S3)nnc2n1 [Decoy857] | Inactive (Decoy) |  | 
42 | C=C1CC[C@@H]2[C@](C)(CC[C@H](O)[C@@]2(C)CO[C@H]2O[C@@H](CO[C@H]3O[C@@H](CO)[C@@H](O)[C@H]3O)[C@@H](O)[C@@H](O)[C@H]2O)[C@@H]1CC/C(C)=C\CO [Decoy611] |  | Inactive (Decoy) | 
43 | O=C(O)CN(CC(=O)O)[C@H](CCCCNC(=S)Nc1ccc(-c2c3ccc(=O)cc-3oc3cc(O)ccc23)c(C(=O)O)c1)C(=O)O [Decoy503] |  | Inactive (Decoy) | 
44 | COc1cc(-n2c(O)c([C@H]3OC(=O)c4c3ccc(OC)c4OC)c(O)nc2=S)cc(OC)c1OC [Decoy716] |  |  | Type (sheet 6QHD_actives_decoys, […]): Inactive (Decoy)
45 | CO[C@H]1C[C@H](O[C@H]2CC[C@]3(C=O)[C@H]4CC[C@]5(C)[C@@H](C6=CC(=O)OC6)CC[C@]5(O)[C@@H]4CC[C@]3(O)C2)O[C@H](C)[C@H]1O[C@H]1O[C@H](CO)[C@@H](O)[C@H](O)[C@H]1O [Decoy943] | Inactive (Decoy) |  | 
46 | COC1=C[C@]23CCCN2CCc2cc4c(cc2[C@@H]3[C@@H]1OC(=O)[C@@](O)(CCCC(C)(C)O)CC(=O)O)OCO4 [Decoy432] |  |  | Type (sheet 6QHD_actives_decoys, […]): Inactive (Decoy)
47 | COc1cc(S(=O)(=O)N2CCCCC2)ccc1N/C=C1\C(=O)NC(=O)N(c2ccc(C)cc2)C1=O [Decoy837] | Inactive (Decoy) |  | 
48 | C[C@H](OC(=O)c1sccc1NS(C)(=O)=O)C(=O)NCC(=O)Nc1ccc(F)c(F)c1F [Decoy852] | Inactive (Decoy) |  | 
49 | CC(C)C[C@H](NC(=O)/C=C/c1ccc(OP(=O)(O)O)cc1)C(=O)N1CCC[C@H]1C(=O)N[C@@H](CCC(N)=O)Cc1ccc(O)cc1 [CHEMBL573903] |  |  | Type (known STAT3 active) [3]: Active
50 | CCc1ccc2c(c1)[C@@]1(N[C@@H](Cc3ccc(O)c(O)c3)[C@H]3C(=O)N(CCc4ccc(OC)c(OC)c4)C(=O)[C@H]31)C(=O)N2 [Decoy902] | Inactive (Decoy) |  | 
51 | O=C(NCCCN1CCOCC1)C(C(=O)NCCCN1CCOCC1)c1ncc(C(F)(F)F)cc1Cl [Decoy377] |  | Inactive (Decoy) | 
